Results from PubChem BioAssay (NCI).
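The compound was tested at five concentrations on cells cultured in 96-well plates, with a 48-hour exposure period. GI50: concentration for 50% inhibition of growth. TGI denotes the concentration required for complete inhibition of growth.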

Columns and labels:
Assay in all cases: growth of human tumour cells (NCI), 48 h
KM12 colon = tested on: KM12 colon
SF-268 CNS = tested on: SF-268 CNS
UO-31 renal = tested on: UO-31 renal
RXF 393 renal = tested on: RXF 393 renal
MCF7 breast = tested on: MCF7 breast
HS 578T breast = tested on: HS 578T breast
MDA-MB-231 breast = tested on: MDA-MB-231 breast
NCI-H522 lung = tested on: NCI-H522 lung
ACHN renal = tested on: ACHN renal
DU-145 prostate = tested on: DU-145 prostate

| SMILES | TGI (KM12 colon) [µM] | TGI (SF-268 CNS) [µM] | TGI (UO-31 renal) [µM] | TGI (RXF 393 renal) [µM] | TGI (MCF7 breast) [µM] | TGI (HS 578T breast) [µM] | TGI (MDA-MB-231 breast) [µM] | TGI (NCI-H522 lung) [µM] | TGI (ACHN renal) [µM] | TGI (DU-145 prostate) [µM] | GI50 (KM12 colon) [µM] | GI50 (HS 578T breast) [µM] | GI50 (SF-268 CNS) [µM] | GI50 (MDA-MB-231 breast) [µM] | GI50 (NCI-H522 lung) [nM] | GI50 (ACHN renal) [µM] | GI50 (RXF 393 renal) [µM] | GI50 (MCF7 breast) [µM] | GI50 (DU-145 prostate) [µM] | GI50 (UO-31 renal) [µM] |
| --- | --- | --- | --- | --- | --- | --- | --- | --- | --- | --- | --- | --- | --- | --- | --- | --- | --- | --- | --- | --- |
| Cc1cccc2nc3c(C(=O)NCCN(C)C)cccc3cc12 | 9.47 | 5.09 | 5.44 | 4.13 | 9.44 | – | – | – | – | – | – | – | – | – | – | – | – | – | – | – |
| CNC(=O)OC(C)CN1c2ccccc2Sc2ccc(Cl)cc21 (stereo unspecified) | – | > 10 | > 10 | > 10 | > 10 | > 10 | > 10 | > 10 | > 10 | > 10 | – | – | – | – | – | – | – | – | – | – |
| CCS(=O)(=O)Nc1ccc(Nc2c3ccccc3nc3ccccc23)c(OC)c1 | 6.72 | 12.5 | 6.34 | 9.6 | 6.15 | – | – | 16.1 | – | – | – | – | – | – | – | – | – | – | – | – |
| COc1cc(C2C(C(=O)O)=C(CO)Oc3cc4c(cc32)OCO4)cc(OC)c1O (stereo unspecified) | – | – | > 100 | – | – | – | – | – | > 100 | – | – | – | – | – | – | – | – | – | – | – |
| CCOC(=O)CSc1nc(N)c2c(-c3ccc(OC)c(OC)c3)c3c(nc2n1)CCCC3 | > 100 | > 100 | > 100 | > 100 | > 100 | 35.6 | > 100 | – | > 100 | > 100 | – | – | – | – | – | – | – | – | – | – |
| CC1SC(c2ccccc2)N(CCc2cccs2)C1=O (stereo unspecified) | 13.3 | 16.1 | – | 20.4 | 15.2 | 38.1 | 16.1 | 8.76 | 17.9 | 19.9 | 3.44 | 4.52 | 3.56 | 3.3 | 1890 | 4.69 | 6.76 | 3.36 | 7.08 | – |
| COc1ccc2nc(-c3ccc(-c4noc(-c5cc(OC)c(OC)c(OC)c5)n4)cc3)[nH]c2c1 | 81.8 | 45.6 | 38.7 | 19.1 | 22.1 | 55.7 | 13.9 | 45.3 | > 100 | 28.3 | 7.52 | 9.49 | 7.13 | 2.65 | 6890 | 28.2 | 5.24 | 1.08 | 9.48 | 18.9 |
| CCOC(=O)c1nc2ccc(Cl)cc2c2c1Cc1ccccc1-2 | > 100 | > 100 | > 100 | > 100 | – | – | – | > 100 | > 100 | – | – | – | – | – | – | – | – | – | – | – |
| CC(=O)Nc1cc([As](=O)(O)O)ccc1O | > 100 | > 100 | > 100 | > 100 | > 100 | > 100 | > 100 | > 100 | > 100 | > 100 | – | – | – | – | – | – | – | – | – | – |
| CN(C)CC(=O)Nc1ccc(Cn2nnc3c2C(=O)c2nnn(Cc4ccc(NC(=O)CN(C)C)cc4)c2C3=O)cc1 | – | – | – | – | – | 2.06 | – | – | 1.23 | 0.337 | – | 0.337 | – | – | – | 0.335 | – | – | 0.175 | – |
| COc1ccc(/C(=C2/O[C@@H]([C@H]3COC(C)(C)O3)[C@H]3OC(C)(C)O[C@@H]23)c2cc(OC)c(OC)c(OC)c2)cc1O | 17.8 | 53.6 | 70.4 | 5.07 | > 100 | 67.9 | 50.1 | 7.54 | > 100 | > 100 | 4.1 | 6.97 | 7.95 | 9.71 | 2950 | 15.4 | 2.35 | 12.3 | 3.93 | 21.8 |
| CN1CC[C@@]2(c3cccc(O)c3)CC(=O)/C(=C/c3ccccc3)[C@H]1C2 | > 30.4 | 19.7 | 25.5 | 20.5 | 10.3 | 9.81 | 23.6 | 20 | 22.6 | 29.3 | – | – | – | – | – | – | – | – | – | – |
| COc1ccc2nc(N/N=C/C(C)=N/Nc3cc(C)c4cc(OC)ccc4n3)cc(C)c2c1 | 44.1 | 60.8 | > 100 | > 83.1 | 29.8 | 68.8 | 36.7 | 40.3 | 55.3 | 34.8 | – | – | – | – | – | – | – | – | – | – |
